From the Kinase Knowledgebase extract (Sharma et al. 2016)

Tests used:
PIK3CD (Human) = PIK3CD (Human) (UniProt O00329); assay: Assessment of PIK3CD Kinase Activity
PIK3CG (human) = PIK3CG (human) (UniProt P48736); assay: Assessment of PIK3CG Kinase Activity
PIK3CA (human) = PIK3CA (human) (UniProt P42336); assay: Assessment of PIK3CA Kinase Activity
PIK3CB (Human) = PIK3CB (Human) (UniProt P42338); assay: Assessment of PIK3CB Kinase Activity
Chain of PIK3CB (Human) (P42338 whole entry, looked up): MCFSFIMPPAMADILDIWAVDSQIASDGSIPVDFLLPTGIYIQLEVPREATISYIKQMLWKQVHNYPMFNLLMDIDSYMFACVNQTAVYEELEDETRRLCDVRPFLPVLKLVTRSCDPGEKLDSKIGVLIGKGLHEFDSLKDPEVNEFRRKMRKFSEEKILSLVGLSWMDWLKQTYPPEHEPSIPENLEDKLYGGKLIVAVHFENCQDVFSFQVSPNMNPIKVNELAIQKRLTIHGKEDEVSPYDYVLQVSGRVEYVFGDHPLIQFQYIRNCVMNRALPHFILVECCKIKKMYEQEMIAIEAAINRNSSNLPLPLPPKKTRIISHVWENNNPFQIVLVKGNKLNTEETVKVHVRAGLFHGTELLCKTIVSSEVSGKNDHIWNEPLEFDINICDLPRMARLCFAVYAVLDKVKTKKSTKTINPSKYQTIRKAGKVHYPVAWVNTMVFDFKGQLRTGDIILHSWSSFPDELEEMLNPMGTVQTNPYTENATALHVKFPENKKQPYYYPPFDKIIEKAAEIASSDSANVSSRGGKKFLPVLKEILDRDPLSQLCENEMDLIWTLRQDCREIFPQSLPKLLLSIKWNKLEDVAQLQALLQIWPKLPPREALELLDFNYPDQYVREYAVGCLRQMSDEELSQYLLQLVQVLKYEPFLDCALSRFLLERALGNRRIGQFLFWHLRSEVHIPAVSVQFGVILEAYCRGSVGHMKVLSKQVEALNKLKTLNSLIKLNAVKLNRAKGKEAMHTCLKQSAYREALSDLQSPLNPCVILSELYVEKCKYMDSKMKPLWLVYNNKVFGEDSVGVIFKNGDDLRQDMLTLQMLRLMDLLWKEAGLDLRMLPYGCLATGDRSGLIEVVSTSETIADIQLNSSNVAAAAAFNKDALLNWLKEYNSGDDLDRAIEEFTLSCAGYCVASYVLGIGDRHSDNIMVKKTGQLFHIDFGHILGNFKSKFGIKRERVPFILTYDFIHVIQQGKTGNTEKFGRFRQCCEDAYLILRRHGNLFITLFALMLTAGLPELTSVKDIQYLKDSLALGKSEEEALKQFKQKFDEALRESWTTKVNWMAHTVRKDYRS

Chain of PIK3CD (Human) (O00329 whole entry, looked up): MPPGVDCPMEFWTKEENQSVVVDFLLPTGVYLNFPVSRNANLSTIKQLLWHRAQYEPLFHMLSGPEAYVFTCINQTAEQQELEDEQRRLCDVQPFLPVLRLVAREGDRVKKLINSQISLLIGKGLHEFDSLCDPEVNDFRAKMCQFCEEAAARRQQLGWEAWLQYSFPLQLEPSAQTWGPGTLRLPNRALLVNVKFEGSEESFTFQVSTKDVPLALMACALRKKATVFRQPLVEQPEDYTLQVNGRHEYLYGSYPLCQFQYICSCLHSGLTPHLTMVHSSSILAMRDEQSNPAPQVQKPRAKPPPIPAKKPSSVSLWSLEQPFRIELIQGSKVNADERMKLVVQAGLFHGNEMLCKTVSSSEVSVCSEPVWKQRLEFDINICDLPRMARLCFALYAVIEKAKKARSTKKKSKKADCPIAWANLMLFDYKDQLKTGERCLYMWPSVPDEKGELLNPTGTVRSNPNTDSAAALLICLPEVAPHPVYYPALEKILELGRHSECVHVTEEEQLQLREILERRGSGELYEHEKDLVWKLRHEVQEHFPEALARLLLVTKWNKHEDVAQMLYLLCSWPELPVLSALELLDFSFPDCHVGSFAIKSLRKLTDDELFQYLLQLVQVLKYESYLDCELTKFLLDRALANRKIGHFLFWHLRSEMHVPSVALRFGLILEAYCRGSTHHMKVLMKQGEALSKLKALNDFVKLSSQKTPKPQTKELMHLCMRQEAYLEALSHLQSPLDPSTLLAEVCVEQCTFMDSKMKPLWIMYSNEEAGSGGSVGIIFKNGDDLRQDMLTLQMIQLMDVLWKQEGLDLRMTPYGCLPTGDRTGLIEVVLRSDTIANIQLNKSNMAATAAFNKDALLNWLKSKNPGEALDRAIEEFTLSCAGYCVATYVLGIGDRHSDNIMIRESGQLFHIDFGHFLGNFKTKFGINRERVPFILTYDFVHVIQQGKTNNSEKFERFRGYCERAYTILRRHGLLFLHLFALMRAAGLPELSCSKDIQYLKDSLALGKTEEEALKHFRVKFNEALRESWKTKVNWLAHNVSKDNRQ
Chain of PIK3CA (human) (P42336 whole entry, looked up): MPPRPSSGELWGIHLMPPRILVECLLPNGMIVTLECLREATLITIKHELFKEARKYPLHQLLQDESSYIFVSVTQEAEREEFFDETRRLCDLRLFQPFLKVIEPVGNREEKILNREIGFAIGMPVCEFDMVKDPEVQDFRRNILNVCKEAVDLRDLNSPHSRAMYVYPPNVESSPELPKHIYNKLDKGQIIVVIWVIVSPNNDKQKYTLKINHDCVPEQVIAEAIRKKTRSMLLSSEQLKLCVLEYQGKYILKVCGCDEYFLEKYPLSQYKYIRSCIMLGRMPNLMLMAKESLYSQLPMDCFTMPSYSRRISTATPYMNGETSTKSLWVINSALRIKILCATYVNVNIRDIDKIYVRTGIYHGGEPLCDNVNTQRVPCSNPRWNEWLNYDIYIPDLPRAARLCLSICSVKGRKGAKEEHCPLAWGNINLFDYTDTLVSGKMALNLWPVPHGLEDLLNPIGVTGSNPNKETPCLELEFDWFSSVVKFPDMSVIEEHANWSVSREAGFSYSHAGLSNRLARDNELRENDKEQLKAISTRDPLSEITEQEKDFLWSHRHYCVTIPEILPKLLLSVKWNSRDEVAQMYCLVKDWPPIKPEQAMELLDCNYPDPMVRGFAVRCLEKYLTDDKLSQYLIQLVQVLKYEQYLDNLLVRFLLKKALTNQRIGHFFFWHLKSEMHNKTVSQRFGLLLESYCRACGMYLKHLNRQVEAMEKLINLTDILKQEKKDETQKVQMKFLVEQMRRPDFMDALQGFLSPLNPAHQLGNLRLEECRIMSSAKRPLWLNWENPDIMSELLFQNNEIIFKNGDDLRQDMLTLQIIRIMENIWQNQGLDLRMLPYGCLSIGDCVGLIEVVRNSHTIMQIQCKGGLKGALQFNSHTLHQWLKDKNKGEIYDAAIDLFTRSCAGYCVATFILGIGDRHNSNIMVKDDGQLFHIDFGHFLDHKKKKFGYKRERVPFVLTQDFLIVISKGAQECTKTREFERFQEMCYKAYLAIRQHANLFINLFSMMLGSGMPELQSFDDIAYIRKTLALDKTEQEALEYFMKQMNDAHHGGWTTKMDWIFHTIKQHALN
Chain of PIK3CG (human) (P48736 whole entry, looked up): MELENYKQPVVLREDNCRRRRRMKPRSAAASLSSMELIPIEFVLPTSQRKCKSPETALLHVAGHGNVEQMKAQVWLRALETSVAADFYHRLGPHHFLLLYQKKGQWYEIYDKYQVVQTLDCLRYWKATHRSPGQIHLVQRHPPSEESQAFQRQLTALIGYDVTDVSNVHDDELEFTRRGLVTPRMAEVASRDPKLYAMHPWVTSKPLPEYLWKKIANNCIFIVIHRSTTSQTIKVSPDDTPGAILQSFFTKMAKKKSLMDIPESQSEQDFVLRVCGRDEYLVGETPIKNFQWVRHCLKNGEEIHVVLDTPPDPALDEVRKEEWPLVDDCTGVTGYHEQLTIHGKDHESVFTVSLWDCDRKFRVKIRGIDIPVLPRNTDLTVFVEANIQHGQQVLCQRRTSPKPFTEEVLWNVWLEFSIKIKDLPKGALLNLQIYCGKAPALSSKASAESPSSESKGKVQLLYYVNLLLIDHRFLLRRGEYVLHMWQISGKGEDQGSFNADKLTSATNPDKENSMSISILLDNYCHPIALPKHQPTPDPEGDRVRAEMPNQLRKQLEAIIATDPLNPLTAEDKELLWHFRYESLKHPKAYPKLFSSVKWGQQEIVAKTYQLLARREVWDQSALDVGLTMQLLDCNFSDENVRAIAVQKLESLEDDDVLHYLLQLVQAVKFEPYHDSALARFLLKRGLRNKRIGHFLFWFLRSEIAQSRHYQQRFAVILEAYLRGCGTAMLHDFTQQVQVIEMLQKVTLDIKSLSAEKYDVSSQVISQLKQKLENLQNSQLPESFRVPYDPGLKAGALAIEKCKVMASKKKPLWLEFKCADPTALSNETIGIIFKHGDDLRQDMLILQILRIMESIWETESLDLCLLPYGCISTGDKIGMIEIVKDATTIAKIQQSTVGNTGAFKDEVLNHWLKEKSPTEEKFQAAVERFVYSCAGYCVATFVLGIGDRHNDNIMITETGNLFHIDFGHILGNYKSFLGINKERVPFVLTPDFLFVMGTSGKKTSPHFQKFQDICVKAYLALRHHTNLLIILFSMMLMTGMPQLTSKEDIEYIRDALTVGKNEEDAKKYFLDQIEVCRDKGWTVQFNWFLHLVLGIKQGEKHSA

Row | Structure (SMILES) | IC50 (PIK3CD (Human)) [nM] | IC50 (PIK3CG (human)) [nM] | IC50 (PIK3CA (human)) [nM] | IC50 (PIK3CB (Human)) [nM]
1 | CC(=O)Nc1nc2ccc(-c3nn(Cc4nc5ccccc5nc4N4CCCC4)c4ncnc(N)c34)cc2s1 | ≤ 100 | ≤ 100 | ≤ 100 | 
2 | CN1CCN(c2nc3ccccc3nc2Cn2nc(-c3cc(O)cc(F)c3)c3c(N)ncnc32)CC1 | ≤ 100 |  |  | 100 to 1000
3 | Cc1nccn1-c1nc2ccccc2cc1Cn1nc(-c2ccc3nc(N)sc3c2)c2c(N)ncnc21 | ≤ 100 |  | 100 to 1000 | 
4 | Nc1ncnc2c1c(-c1ccc3cn[nH]c3c1)nn2Cc1cc2ccccc2nc1N1CCCC1 | ≤ 100 |  |  | 
5 | CN1CCN(c2nc3ccccc3cc2Cn2nc(-c3ccc4nc(N)sc4c3)c3c(N)ncnc32)CC1 | ≤ 100 | ≤ 100 | ≤ 100 | ≤ 100
6 | CC(c1cc2ccccc2nc1-c1ccccc1)n1nc(-c2cc(O)cc(F)c2)c2c(N)ncnc21 (configuration not stated) | ≤ 100 | ≤ 100 | 100 to 1000 | 100 to 1000
7 | Nc1ncnc2c1c(-c1cccc(O)c1)nn2Cc1cc2ccccc2nc1-c1cccnc1 | ≤ 100 |  |  | 
8 | Nc1ncc(-c2nn(Cc3cc4ccccc4nc3-c3ccccc3)c3ncnc(N)c23)cn1 | 100 to 1000 |  |  | 
9 | Nc1nc2ccc(-c3nn(Cc4cc5ccccc5nc4-c4ccccc4C(F)(F)F)c4ncnc(N)c34)cc2[nH]1 | ≤ 100 |  |  | 
10 | CC(=O)Nc1nc2ccc(-c3nn(Cc4nc5ccccc5nc4N4CCN(C)CC4)c4ncnc(N)c34)cc2s1 | ≤ 100 | 100 to 1000 | 100 to 1000 | ≤ 100
11 | Nc1ncnc2c1c(C=C1SC(=O)NC1=O)nn2Cc1cc2ccccc2nc1-c1ccccc1F | ≤ 100 | ≤ 100 |  | 
12 | Cc1ccccc1-c1nc2ccccc2cc1Cn1nc(-c2ccc3nc(N)sc3c2)c2c(N)ncnc21 | ≤ 100 | ≤ 100 |  | 
13 | CCC(c1cc2ccccc2nc1N1CCCC1)n1nc(C#C[C@@H](C)O)c2c(N)ncnc21 (some centres not stated) | ≤ 100 |  |  | 
14 | Nc1nc2ccc(-c3nn(Cc4nc5ccccc5nc4N4CCCC4)c4ncnc(N)c34)cc2s1 | ≤ 100 | ≤ 100 | 100 to 1000 | 
15 | NC(=O)C=Cc1nn(Cc2cc3ccccc3nc2-c2ccccc2F)c2ncnc(N)c12 | 100 to 1000 |  |  | 
